Experiment [1] has as its system HSV-1. Nature of the experiment: Antiviral activity (inactivation) against HSV-1. It counts as cell-based, Herpes Simplex Virus-1.
Experiment [2] concerns P. aeruginosa. Nature of the experiment: Activity against P. aeruginosa. The experiment is classed as cell-based.
Experiment [3] relates to S. aureus. Nature of the experiment: Activity against S. aureus. It counts as cell-based.
Experiment [4] has as its system M tuberculosis. Nature of the experiment: Activity against M tuberculosis. The experiment is classed as cell-based.
The subject of experiment [5] is P. gingivalis. Nature of the experiment: Antimicrobial activity against P. gingivalis. The experiment is classed as cell-based, Porphyromonas gingivalis.
Experiment [6] has as its target T1, Aβ40 (Homo sapiens, UniProt P05067).
T1 construct: The 40 AA long isoform, Aβ40, is formed predominantly
Nature of the experiment: Thioflavin T (ThT) fluorescence assay of Aβ40 fibril formation in presence of LL-37 or peptoid. It counts as biochemical.

Experiment [7] deals with C. albicans. Description: Activity against C. albicans. The experiment is classed as cell-based.
Experiment [8] in a line: ThT fibril formation assay comparing kinetics of Aβ40 wild-type and Aβ40-E22Δ (Osaka) mutant. As to conditions: standard ThT fibril formation conditions, peptide alone. As to the method:
FIG. 5 depicts a ThT fibril formation assay comparing fibril formation kinetics of Aβ40 wild-type and the Aβ40-E22Δ (Osaka) FAD mutant.
FIG. 5 illustrates exemplary data of preliminary experiments in which Aβ40-E22Δ was synthesized and subjected to standard conditions utilized in ThT fibril formation assays. FIG. 5 illustrates that the deletion of the E22 residue leads to a pronounced acceleration of fibril formation, which dropped from 196±7 min with Aβ40-WT to 38±1 min with Aβ40-E22Δ. The Aβ40-E22Δ mutant is much more amyloidogenic than Aβ40-WT, which may complicate efforts to block its amyloidogenicity.

Entries after “also recorded” stand apart in the source; their conditions may differ.

T1 sequence (P05067 672-711 limits assumed): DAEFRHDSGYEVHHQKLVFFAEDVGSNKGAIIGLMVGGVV

On to H-(NLys-Nspe-Nspe)4-NH2 [Peptoid 1], for which the “concentration with antiviral activity / totally inactivating HSV-1 virus” value in experiment [1] is 4 µg/mL. Also, the activity against pathogen result in experiment [2], in experiment [3], in experiment [4] and in experiment [7] was “active” in each case. In experiment [5], the “concentration with antimicrobial activity / killing P. gingivalis bacteria” value amounted to 4 µg/mL. In addition, the “anti-amyloid activity (prevention of Aβ amyloid formation)” value in experiment [6] (FIG. 1C, 20 μM peptide/peptoid concentrations) is recorded as “shares the same anti-amyloid activity”.
“LL-37: peptide produced by the human innate immune system, ~4500 g/mol, 37 amino acids”: in experiment [6] (1:1 equimolar ratio to wildtype Aβ40), the “Aβ fibril formation (ThT fluorescence)” value was “totally prevented from forming Aβ fibrils; also recorded: blocks fibril formation”. Also, in experiment [6] (lower relative (sub-stoichiometric) molar amounts vs Aβ40), the “kinetics of Aβ fibril formation (ThT fluorescence)” value was “slow the kinetics of fibril formation; also recorded: slows it down in a dose-dependent manner”. Besides, the “final fluorescence at endpoint in ThT fibril formation assay” value in experiment [6] (sub-stoichiometric LL-37 addition) is on record as “higher fluorescence output at endpoint”.
For the substance “Aβ40-E22Δ: FAD-causing Aβ40 variant with deletion of E22, known as the Osaka mutation (DAEFRHDSGYEVHHQKLVFFADVGSNKGAIIGLMVGGVV; Amyloid-beta protein 40; UniProt P05067 672-711, looked up, variant E22*)”, the “fibril formation (time) in ThT assay” value in experiment [8] is 38 ± 1 min.
Consider “Aβ40-WT: 40 amino acid long wild-type isoform of Amyloid β”, for which, in experiment [8], the “fibril formation (time) in ThT assay” value turned out to be 196 ± 7 min.
